Measured values reported in ChEMBL document CHEMBL1141258, “Prismatomerin, a new iridoid from Prismatomeris tetrandra. Structure elucidation, determination of absolute configuration, and cytotoxicity” (J Nat Prod, 2007).
Converted amounts (≈) assume the structure as drawn.

Key:
[1] = Toxicity in brine shrimp after 24 hrs; type: organism-based; conditions: artemia, in vivo; read-out: LD50
[2] = Toxicity in brine shrimp after 48 hrs; type: organism-based; conditions: artemia, in vivo; read-out: LD50
L929 = assay: Antiproliferative activity against mouse L929 cells after 5 days by SRB assay; type: cell-based; conditions: L929, 120 h
[3] = Antiproliferative activity against human KB31 cells after 5 days by MTT assay; conditions: KB 3-1, 120 h
A549 = assay: Antiproliferative activity against human A549 cells after 5 days by MTT assay; conditions: A549, 120 h
SW480 = assay: Antiproliferative activity against human SW480 cells after 5 days by MTT assay; conditions: SW480, 120 h

Row | Compound | LC50 at 24 h [1] [µg/mL] | LC50 at 48 h [2] [nM] | IC50 (L929) [nM] | IC50 [3] [nM] | IC50 (A549) [nM] | IC50 (SW480) [nM]
1 | COC(=O)C1=CO[C@H](O[C@@H]2O[C@H](CO)[C@@H](O)[C@H](O)[C@H]2O)[C@H]2[C@@H]1C=C[C@@]21C=C(C(O)c2ccc(O)cc2)C(=O)O1 (stereo partly specified) [GAERTNEROSIDE] | 0.38 (≈ 0.693 µM) | 224 | – | – | – | –
2 | COC(=O)C1=CO[C@@H]2O[C@H]3/C(=C\c4ccc(OC(C)=O)cc4)C(=O)O[C@]34C=C[C@H]1[C@H]24 | – | – | 410 | 350 | 1600 | 84
